Source: patent publication US20250188151A1, “C-JUN ANTAGONIST PEPTIDES” (The University of Bath, priority 2022, published 2025)
Bridge positions count the residues as written; N and C are the ends. Peptide text beside a SMILES is read from it.

Tests used:
[1] = CD spectra and thermal denaturation of peptide-only samples (helicity, homodimer Tm)
Protocol: Circular Dichroism (CD): An Applied Photophysics Chirascan was used for CD measurements, with a 200 μL sample in a 1 mm path length CD cell. Protein/DNA samples were suspended in 150 mM potassium phosphate, 150 mM potassium fluoride and 5 mM TCEP at pH 7.4 and were equilibrated for 30 minutes before measurement. […] These scans were averaged and converted to molar residue ellipticities (MRE). Thermal denaturation experiments were performed by measuring the ellipticity at 222 nm over a 1 to 90° C. gradient at 1° C. increments. Post-melt scans at 20° C. confirmed the transitions were reversible as they overlaid within 10% of the pre-melt scan.
Circular Dichroism (CD): An Applied Photophysics Chirascan was used for CD measurements, with a 200 μL sample in a 1 mm path length CD cell. Protein/DNA samples were suspended in 150 mM potassium phosphate, 150 mM potassium fluoride and 5 mM TCEP at pH 7.4 and were equilibrated for 30minutes before measurement. […] Thermal denaturation experiments were performed by measuring the ellipticity at 222 nm over a 1 to 90° C. gradient at 1° C. increments. Post-melt scans at 20° C. confirmed the transitions were reversible as they overlaid within 10% of the pre-melt scan.
Peptide helicity was determined by quantifying the CD signal at 222 nm of peptide only samples. Thermal denaturation experiments were then used to determine the Tm of peptide-c-Jun heterodimers, which was used as an approximate measure of target engagement. […] The same 60 amino acid c-Jun bZIP construct was used for all experiments, regardless of antagonist peptide length.

[2] = target: T1, cJun/TRE DNA interaction (Homo sapiens, UniProt P05412, S292Y); assay: CD cJun/TRE DNA antagonism (shift of TRE DNA peak at ~281 nm, Hill fit); format: biochemical; details: ratio of CD IC50
T1 construct: The same 60 amino acid c-Jun bZIP construct was used for all experiments; His-SUMO (N, cleaved yes); made in house; host or cells: E. coli
Source text: Briefly, in TBS the coding region for the essential gene dihydrofolate reductase (DHFR) is mutated to incorporate TRE sites so that introduction of c-Jun to this gene inside E. coli produces a transcriptional block that abrogates cell proliferation. The TRE site-bound c-Jun molecules sterically prevent RNA polymerase transcribing the essential gene and this can only be restored upon introduction of an effective c-Jun/TRE antagonist. Consequently, the survival of a particular cell is controlled by the ability of a peptide library member to remove the c-Jun transcriptional block and therefore to restore DHFR activity. TBS thus facilitates the identification of therapeutically valuable sequences. Further details for the TBS assay are provided in WO2020128015, which is incorporated herein by reference in its entirety. […] The TRE-DNA construct produces a positive CD peak at ˜281 nm, which decreases in intensity upon c-Jun binding. […] This method allows for the calculation of an IC50 value by fitting the titration data to a Hill equation. In some embodiments, the c-Jun antagonist is able to inhibit the DNA-binding activity of c-Jun within 10-fold of the ability of HingeW to inhibit the DNA-binding activity of c-Jun (e.g. the c-Jun antagonist has a reduced ability to inhibit the DNA-binding activity of c-Jun that is within 10-fold of that determined for HingeW). In some embodiments, the c-Jun antagonist is able to inhibit the DNA-binding activity of c-Jun within 9-fold, preferably within 8-fold, more preferably within 7-fold, even more preferably within 6-fold, yet more preferably within 5-fold of the ability of HingeW to inhibit the DNA-binding activity of c-Jun. The ability of the c-Jun antagonist and HingeW to inhibit the DNA-binding activity may be measured using the TBS assay (e.g. by quantifying the number of colonies) or by determining the IC50 using a circular dichroism assay described herein. Optionally, the c-Jun antagonist may have this activity when cross-linked. Methods for cross-linking peptides are described in more detail below.
Therefore, the acidic domain was the initial focus for optimisation. 1 was iteratively truncated (2-6) to investigate the effect on c-Jun binding and c-Jun/TRE DNA antagonism. […] Thermal denaturation experiments were then used to determine the Tm of peptide-c-Jun heterodimers, which was used as an approximate measure of target engagement. CD was also used to investigate the ability of the functional activity of peptides in antagonising the c-Jun/TRE DNA interaction. The TRE-DNA construct used produces a positive CD peak at ˜281 nm (no c-Jun absorbance at this wavelength allows for direct measurement of DNA upon binding) which decreases in intensity upon c-Jun binding. […] This allowed for the calculation of an IC50 value by fitting the titration data to a Hill equation. […] The same 60 amino acid c-Jun bZIP construct was used for all experiments, regardless of antagonist peptide length.

[3] = target: cJun bZIP (Homo sapiens, UniProt P05412, S292Y); assay: CD spectra and thermal denaturation of peptide/cJun heterodimers; details: peptide (5 μM)/c-Jun (5 μM) heterodimer; Table 6
[4] = target: cJun (Homo sapiens, UniProt P05412, S292Y); assay: Isothermal titration calorimetry, Example 2 (PEAQ-ITC); format: binding; parameters: The same 60 amino acid c-Jun bZIP construct was used for all experiments; His-SUMO (N, cleaved yes); made in house; host or cells: E. coli; details: ITC
Protocol: 2 μL injections of antagonist peptide at 25-200 μM were injected into the cell containing cJun at 2.5-20 μM. Software was used to record and analyse the heat change upon addition. Control experiments involved the injection of the antagonist peptide sample into the cell containing ITC buffer alone to determine the heat of dilution which was subtracted. The resulting binding data were fit to a one site binding model to extract the enthalpy change of binding (ΔH) and the equilibrium binding constant (KD), from which the free energy change of binding (ΔG) and the entropy change of binding (ΔS) was calculated (Wiseman et al., 1989). Thermodynamic parameters are presented as an average of two independent experiments with errors given as one standard deviation.

Compound: RIKAERKRMRNRIAASKCRKRKLERIARLEEKVKTLKAQNYELASTANMLREQVAQLGAP [cJun]
- Fraction helicity at 20° C. (CD) ([1]; peptide alone): 14.0%
- Tm (° C.) (CD) ([1]; peptide alone (homodimer)): 39.8 °C

Compound: Ac-LARENEELEKEAEELVVEEDVLEEEIEQLEERNYALRKEIEDLQKQLEKL-NH2 [Peptide 2]
- fold more effective antagonism than 10 [2]: 4 fold
- fold reduction in cJun/TRE antagonism relative to 1 [2]: 1.2 fold
- Tm (° C.) [3]: 68.5 ± 1.1 °C

Compound: Ac-EAEELVVEEDVLEEEIEQLEERNYALRKEIEDL-NH2 [Peptide 25]
- fold reduction in antagonism relative to 4 [2]: 26.7 fold
- fold reduction in antagonism relative to 11 [2]: 14.8 fold
- Tm (° C.) [3]: 44.8 ± 1.2 °C

Compound: CC[C@H](C)[C@H](NC(=O)[C@H](CCC(=O)O)NC(=O)[C@@H]1CC(=O)NCCCC[C@H](NC(=O)[C@H](CC(N)=O)NC(=O)[C@H](CCCCN)NC(=O)[C@H](CCC(=O)O)NC(=O)[C@H](CCC(=O)O)NC(=O)[C@H](CC(C)C)NC(=O)[C@H](CCC(N)=O)NC(=O)[C@H](CCC(=O)O)NC(=O)[C@@H](NC(=O)[C@H](CCC(=O)O)NC(=O)[C@H](CCC(=O)O)NC(=O)[C@H](CCC(=O)O)NC(=O)[C@H](CC(C)C)NC(=O)[C@@H](NC(=O)[C@H](CC(=O)O)NC(=O)[C@H](CCC(=O)O)NC(=O)[C@H](CCC(=O)O)NC(=O)[C@@H](NC(=O)[C@@H](NC(=O)[C@H](CC(C)C)NC(C)=O)C(C)C)C(C)C)C(C)C)[C@@H](C)CC)C(=O)N[C@@H](C)C(=O)N[C@@H](CC(C)C)C(=O)N[C@@H](CCCCN)C(=O)N1)C(=O)N[C@@H](CCC(=O)O)C(=O)N[C@@H](CC(=O)O)C(=O)N[C@@H](CC(C)C)C(=O)N[C@@H](CCC(N)=O)C(=O)N[C@@H](CCCCN)C(=O)N[C@@H](CCC(N)=O)C(=O)N[C@@H](CC(C)C)C(=O)N[C@@H](CCC(=O)O)C(=O)N[C@@H](CCCCN)C(=O)N[C@@H](CC(C)C)C(=O)N[C@@H](Cc1ccc(O)cc1)C(N)=O [Peptide 8]
- fold increase in antagonism relative to the linear counterpart 5 [2]: 1.8 fold
- Tm (° C.) [3]: 67.2 ± 0.8 °C

Compound: CC[C@H](C)[C@H](NC(=O)[C@H](CCC(=O)O)NC(=O)[C@H](CCCCN)NC(=O)[C@H](CCCNC(=N)N)NC(=O)[C@H](CC(C)C)NC(=O)[C@H](C)NC(=O)[C@H](Cc1ccc(O)cc1)NC(=O)[C@H](CC(N)=O)NC(=O)[C@H](CCCNC(=N)N)NC(=O)[C@H](CCC(=O)O)NC(=O)[C@H](CCC(=O)O)NC(=O)[C@H](CC(C)C)NC(=O)[C@H](CCC(N)=O)NC(=O)[C@H](CCC(=O)O)NC(=O)[C@@H](NC(=O)[C@H](CCC(=O)O)NC(=O)[C@H](CCC(=O)O)NC(=O)[C@H](CCC(=O)O)NC(=O)[C@H](CC(C)C)NC(=O)[C@@H](NC(=O)[C@H](CC(=O)O)NC(=O)[C@H](CCC(=O)O)NC(=O)[C@H](CCC(=O)O)NC(=O)[C@@H](NC(=O)[C@@H](NC(=O)[C@H](CC(C)C)NC(C)=O)C(C)C)C(C)C)C(C)C)[C@@H](C)CC)C(=O)N[C@@H](CCC(=O)O)C(=O)N[C@@H](CC(=O)O)C(=O)N[C@@H](CC(C)C)C(=O)N[C@@H](CCC(N)=O)C(=O)N[C@H]1CCCCNC(=O)C[C@@H](C(=O)N[C@@H](CC(C)C)C(N)=O)NC(=O)[C@H](CCC(=O)O)NC(=O)[C@H](CC(C)C)NC(=O)[C@H](CCC(N)=O)NC1=O [Peptide 10] (Ac-LVVEEDVLEEEIEQLEERNYALRKEIEDLQKQLEDL-NH2; lactam 31-35)
- fold increase in antagonism relative to the linear counterpart 5 [2]: 1.9 fold
- Tm (° C.) [3]: 68.3 ± 0.9 °C

Compound: Ac-LEKEAEELVVEEDVLEEEIEQLEERNYALRKEIEDLQKQLEKL-NH2 [Peptide 3]
- fold reduction in antagonism relative to 2 [2]: 2 fold
- Tm (° C.) [3]: 67.9 ± 0.9 °C

Compound: CC[C@H](C)[C@@H]1NC(=O)[C@H](CCC(=O)O)NC(=O)[C@@H](NC(=O)[C@H](CCCNC(=N)N)NC(=O)[C@H](CC(C)C)NC(=O)[C@H](C)NC(=O)[C@H](Cc2ccc(O)cc2)NC(=O)[C@H](CC(N)=O)NC(=O)[C@H](CCCNC(=N)N)NC(=O)[C@H](CCC(=O)O)NC(=O)[C@H](CCC(=O)O)NC(=O)[C@H](CC(C)C)NC(=O)[C@H](CCC(N)=O)NC(=O)[C@H](CCC(=O)O)NC(=O)[C@@H](NC(=O)[C@H](CCC(=O)O)NC(=O)[C@H](CCC(=O)O)NC(=O)[C@H](CCC(=O)O)NC(=O)[C@H](CC(C)C)NC(=O)[C@@H](NC(=O)[C@H](CC(=O)O)NC(=O)[C@H](CCC(=O)O)NC(=O)[C@H](CCC(=O)O)NC(=O)[C@@H](NC(=O)[C@@H](NC(=O)[C@H](CC(C)C)NC(=O)[C@H](CCC(=O)O)NC(=O)[C@H](CCC(=O)O)NC(=O)[C@H](C)NC(=O)[C@H](CCC(=O)O)NC(C)=O)C(C)C)C(C)C)C(C)C)[C@@H](C)CC)CCCCNC(=O)C[C@@H](C(=O)N[C@@H](CC(C)C)C(=O)N[C@@H](CCC(N)=O)C(N)=O)NC(=O)[C@H](CCC(=O)O)NC1=O [Peptide 29] (Ac-EAEELVVEEDVLEEEIEQLEERNYALRKEIEDLQ-NH2; lactam 28-32)
- fold reduction in cJun/TRE antagonism relative to 1 [2]: 10.4 fold
- Tm (° C.) [3]: 57.2 ± 0.4 °C

Compound: Ac-EAEELVVEEDVLEEEIEQLEERNYALRKEIEDLQKQ-NH2 [Peptide 11]
- fold reduction in antagonism relative to 4 [2]: 1.8 fold
- Tm (° C.) [3]: 57.1 ± 0.9 °C
- ΔG [4]: -8.15 ± 0.098 kcal/mol
- ΔH [4]: -5.989 ± 0.813 kcal/mol
- −TΔS [4]: -2.14 ± 0.817 kcal/mol
- Stoichiometry, n ([4]; c-Jun-peptide interaction): 0.95 ± 0.09

Compound: CC[C@H](C)[C@H](NC(=O)[C@H](CCC(=O)O)NC(=O)[C@@H]1CC(=O)NCCCC[C@H](NC(=O)[C@H](CC(N)=O)NC(=O)[C@H](CCCCN)NC(=O)[C@H](CCC(=O)O)NC(=O)[C@H](CCC(=O)O)NC(=O)[C@H](CC(C)C)NC(=O)[C@H](CCC(N)=O)NC(=O)[C@H](CCC(=O)O)NC(=O)[C@@H](NC(=O)[C@H](CCC(=O)O)NC(=O)[C@H](CCC(=O)O)NC(=O)[C@H](CCC(=O)O)NC(=O)[C@H](CC(C)C)NC(=O)[C@@H](NC(=O)[C@H](CC(=O)O)NC(=O)[C@H](CCC(=O)O)NC(=O)[C@H](CCC(=O)O)NC(=O)[C@@H](NC(=O)[C@@H](NC(=O)[C@H](CC(C)C)NC(=O)[C@H](CCC(=O)O)NC(=O)[C@H](CCC(=O)O)NC(=O)[C@H](C)NC(=O)[C@H](CCC(=O)O)NC(C)=O)C(C)C)C(C)C)C(C)C)[C@@H](C)CC)C(=O)N[C@@H](C)C(=O)N[C@@H](CC(C)C)C(=O)N[C@@H](CCCCN)C(=O)N1)C(=O)N[C@@H](CCC(=O)O)C(=O)N[C@@H](CC(=O)O)C(=O)N[C@@H](CC(C)C)C(=O)N[C@@H](Cc1ccc(O)cc1)C(N)=O [Peptide 27] (Ac-EAEELVVEEDVLEEEIEQLEEKNKALKDEIEDLY-NH2; lactam 24-28)
- fold reduction in cJun/TRE antagonism relative to 1 [2]: 8.8 fold
- Tm (° C.) [3]: 52.5 ± 1.4 °C
